Measured values: patent publication US20250302862A1, “SMALL RNA DRUG FOR INHIBITING ACTIVITY OF CANCER CELLS” (Institute of Basic Medical Sciences Chinese Academy of …, priority 2022, published 2025)

Key:
[1] = test system: primary lung cancer Kras^LSL-G12Dp53^fl/fl (KP) mouse model; assay: Tumor tissue apoptosis, caspase-3 immunohistochemistry of lung sections; format: in vivo; conditions: 10 nmol daily by gavage for one month, vs NC group
Excerpt: The mouse model of primary lung cancer was Kras^LSL-G12Dp53^fl/fl (KP).
Mice were weighed and assigned to the negative control group (NC group) and HQi-sRNA-2 group randomly. The NC group was the negative control, in which a sphingosine(d18:1)-NC-sRNA herbal medicine delivery system was constructed from NC-sRNA. The HQi-sRNA-2 group was the experimental group, in which a sphingosine(d18:1)-HQi-sRNA-2 herbal medicine delivery system was constructed from HQi-sRNA-2.
The herbal medicine delivery system was constructed by heating and mixing 10 nmol of sRNA, 100 ug of sphingosine(d18:1) and 300 ul of sterile enzyme-free water in a water bath at 90° C. for 15 minutes.
Each mouse with a uniform body weight was dosed by gavage. Each mouse was given 10 nmol of HQi-sRNA-2 mimic daily by gavage for one month.
The lungs of mice were collected to prepare pathological sections. The left lung was collected and sliced at the largest surface for every mouse, and subjected to immunohistochemistry of caspase-3. The area of positive cell population in the whole pathological section was counted, the tumor burden was calculated, and statistical analysis was performed.

[2] = test system: cyclooxygenase-2 (COX2); assay: COX2 mRNA (RT-PCR/QPCR) and protein (western blot) in H460 cells; format: cell-based, human; conditions: final concentration 10 nmol/L
Description: Method for cell experiment: H460 cells with a cell density of more than 90% in 10 cm2 dishes were plated in 12-well plates (2 plates) according to the cell growth rate, and transfected after 12 h, and the groups were divided as follows: • blank control group (4 wells): 200 uL of opti-MEM per well • negative control group (NC group) and experimental group (3 wells each): the system of each well was as follows • A. 100 uL of opti-MEM and 2 uL of iMax were mixed well for 5 min • B. 100 uL of opti-MEM and 5 uL of small RNA (final concentration 10 nmol/L) were mixed well • C. solution A and solution B were mixed well and let stand for 15 min, and then was added to each well at a 200 uL system • Note: 100 uL of nuclease-free water was added to 2 nmol of small RNA dry powder for dissolution at a storage concentration of 20 umol/L
Cells were collected with Trizo after 24 h of incubation and RNA was extracted. Cells on another plate were collected with RIPA lysis buffer after 48 h of incubation and protein was extracted.
The relative amount of COX-2 mRNA in the RNA in Method 1 and Method 2 was measured by RT-PCR and QPCR technologies.
The relative amount of COX-2 protein in the protein in Method 1 and Method 2 was measured by western blot technology.

## HQi-sRNA-2: small RNA derived from Scutellaria baicalensis, sequence AUGGUUCGAUUCCGGAGAGGG (listed as RNA, chemistry not given here)
[1]
  tumor tissue apoptosis of mice with primary lung cancer: significantly increased
[2]; 24 h, RT-PCR and QPCR
  mRNA level of COX2: significantly down-regulate
[2]; 48 h, western blot
  protein level of COX2: significantly down-regulate
